This is an account of results in patent US10967086B2, “Silver nanoparticle-enhanced photosensitizers as antibiofilm agents” (University Of Cincinnati, priority 2014, dated 2021).

Data set [1] can be described thus: Loading efficiency of photosensitizers in the hybrids (UV-Vis absorption). In kind it is physicochemical. To be noted: named photosensitizer loaded into Ag@mSiO2@photosensitizer hybrid; Example 1. On the procedure: The loading efficiencies of the photosensitizers in the hybrids were determined by UV-Vis absorption. […] Zeta potential measurements were carried out to further investigate the surface properties of the hybrids.
The morphology of the Ag@mSiO2@photosensitizer hybrids was characterized by a Phillips Biotwin 12 transmission electron microscope (FEI). TEM samples were prepared by directly applying 10 μL of the sample ethanol solution onto a carbon-coated copper grid (300 mesh, EMS) and left to dry at room temperature. UV-Vis absorption spectra were measured using a UV-Vis spectrometer (USB4000-ISS, Ocean Optics). The loading efficiency of photosensitizers was determined by measuring the photosensitizers in the supernatant after centrifugation via UV-Vis absorption spectra. The Ag^+ concentration was measured by a triple quadruple ICP-MS (ICP-QQQ, Agilent Technologies).

Data set [2] has as its system Staphylococcus epidermidis (ATCC 35984). Briefly: Photodynamic inactivation assay, white light, plate count. In kind it is cell-based. On the procedure:
(§1) Photodynamic Inactivation Assays. Typically, overnight cultures of Staphylococcus epidermidis (ATCC 35984), Escherichia coli (ATCC 35218), and Acinetobacter baumannii (ATCC 19606) were inoculated into PBS buffer solution (pH=7.4) and mixed with a series of concentrations of Ag@mSiO2@HPIX hybrid, HPIX (dissolved in the same PBS buffer solution), or Ag@mSiO2 nanoparticles. All bacterial suspensions (200 μL) were then placed in the wells of 96-well plates. The final cell concentration of the suspensions was between about 10^6 and 10^7 colony-forming units per mL (CFU/mL). The wells were illuminated with different fluences. After illumination, a plate count was performed. Bacterial viability was determined by a modified version of the Miles and Misra method.
(§2) The suspensions were serially 10-fold diluted with PBS. Then, drops of 10 μL of each dilution were applied onto MH II agar plates. Plates were streaked in triplicate and incubated for 18-24 h at 37° C. in the dark before counting. A non-coherent, white light source with interchangeable fiber bundle (model LC-122, LumaCare) was used in all photoinactivation experiments. The irradiance at the position of the samples was kept at 300 mW/cm^2, as measured by a laser power meter (Model 840011, SPER Scientific).
Ag@mSiO2@HPIX was used as a model system in the PDI study. Ag@mSiO2@HPIX was first tested with S. epidermidis, a Gram-positive bacterium. […]

Data set [3] deals with T. rubrum (ATCC 28188). The data set can be described thus: Photodynamic inactivation of T. rubrum, LED, plate count. Format: cell-based, Tricophyton rubrum. On the procedure: The in vitro PDI of T. rubrum (ATCC 28188) was investigated using different concentrations of Ag@mSiO2@HPIX hybrids, pure HPIX and Ag@mSiO2. Control experiments were carried out without the LED illumination. […] Separately, T. rubrum samples were treated with an LED light source (400 nm, 54 mW/cm2), after incubating for 30 min. with different concentrations of the Ag@mSiO2@HPIX hybrids, free HPIX, and Ag@mSiO2, respectively. […] Plate count method was employed to determine the viable fungal count, after the growth of the T. rubrum became visible. […] In these experiments, the pure HPIX and Ag@mSiO2@HPIX hybrids have the same concentration of HPIX while the amounts of Ag in Ag@mSiO2@HPIX hybrids and Ag@mSiO2 was also kept constant. The enhancement of antifungal PDI efficacy of Ag@mSiO2@HPIX hybrids is defined as log10(enhancement)=log10(Ag@mSiO2@HPIX_killing)−log10(Ag@mSiO2_killing)−log10(HPIX_killing)

In data set [4] the test system is Escherichia coli (ATCC 35218) biofilm. Briefly: Photodynamic inactivation of biofilms, LED, plate count. Format: cell-based. On the procedure:
(§3) Typically, overnight biofilms of Escherichia coli (ATCC 35218), and S. aureus (MRSA) (ATCC BAA44) were washed with PBS buffer solution (pH=7.4), mixed with a series of concentrations of Ag@mSiO2@HPIX hybrid, HPIX (dissolved in the same PBS buffer solution), or Ag@mSiO2 nanoparticles, and these mixtures were incubated for an hour. All biofilms were illuminated with different fluences from a light emitting diode. After illumination, the biofilm was washed to remove the nanoparticle solution or HPIX and disrupted biofilm. A serial dilution was performed and 10 μL of each dilution was plated on an MHB place and incubated for 24 hours at 37° C. Bacterial biofilm viability was determined by a modified version of the Miles and Misra method.
as §2
(§4) The in vitro PDI of MRSA (ATCC BAA44) and E. coli (ATCC 35218) was investigated using different concentrations of Ag@mSiO2@HPIX hybrids, pure HPIX and Ag@mSiO2. Control experiments were carried out without the LED illumination. […] Separately, MRSA and E. coli samples were treated with an LED light source (400 nm, 1000 mW/cm2), after incubating for 1 h. with different concentrations of the Ag@mSiO2@HPIX hybrids, free HPIX, and Ag@mSiO2, respectively. […] Plate count method was employed to determine the viable biofilm count, after the growth of the biofilm became visible. […] In these experiments, the pure HPIX and Ag@mSiO2@HPIX hybrids have the same concentration of HPIX while the amounts of Ag in Ag@mSiO2@HPIX hybrids and Ag@mSiO2 was also kept constant.
(§5) The enhancement of antibiofilm PDI efficacy of Ag@mSiO2@HPIX hybrids is defined as log10(enhancement)=log10(Ag@mSiO2@HPIX_killing)−log10(Ag@mSiO2_killing)−log10(HPIX_killing)

Data set [5] deals with S. aureus (MRSA) (ATCC BAA44) biofilm. The description is as above. Format: cell-based. On the procedure: as §3, §2, §4, §5
In data set [6] the test system is Acinetobacter baumannii (ATCC 19606). The data set can be described thus: Photodynamic inactivation assay, white light, plate count. As to conditions: Example 2. In kind it is cell-based. On the procedure:
as §1
(§6) The suspensions were serially 10-fold diluted with PBS. Then, drops of 10 μL of each dilution were applied onto MH II agar plates. Plates were streaked in triplicate and incubated for 18-24 h at 37° C. in the dark before counting. A non-coherent, white light source with interchangeable fiber bundle (model LC-122, LumaCare) was used in all photoinactivation experiments. The irradiance at the position of the samples was kept at 300 mW/cm^2, as measured by a laser power meter (Model 840011, SPER Scientific). […]

Data set [7] deals with Escherichia coli (ATCC 35218). The data set is described as above. In kind it is cell-based. To be noted: Example 2. On the procedure: as §1, §6
Setting [8] is: dark control, tested concentrations.
Where [9] appears, read: LED 400 nm, 1000 mW/cm2 (blue LED 1 W/cm^2, up to 90 min), after 1 h incubation.

Counter-ions that a name gives are not always drawn.

For `O=C([O-])c1ccc(C2=C3C=CC(=N3)C(c3ccc(C(=O)[O-])cc3)=C3C=CC(=N3)C(=c3ccc(=C([O-])[O-])cc3)c3ccc([n-]3)C(c3ccc(C(=O)[O-])cc3)=C3C=CC2=N3)cc1.[67Cu+2].[H+].[H+].[H+].[H+]` [Cu-TCPP, Cu(II) meso-tetra(4-carboxyphenyl) porphine], the loading efficiency in data set [1] is 260.5 µg/mg.
As to `CC1=C(CCC(=O)O)c2cc3[nH]c(cc4nc(cc5[nH]c(cc1n2)c(C)c5C(C)O)C(C)=C4C(C)O)c(C)c3CCC(=O)O` (stereo not shown) [HPIX, hematoporphyrin IX dihydrochloride], in data set [1], the loading efficiency turned out to be 27.4 µg/mg. Further, the “antibacterial effect without light illumination” value in data set [2] (parallel dark experiments) was “negligible antibacterial effect”. Also, the “PDI efficacy under LED illumination” value in data set [3] (LED 400 nm, 54 mW/cm2, after 30 min incubation) was “negligible PDI efficacy”. For the same molecule, in data set [3] (setting [8]), the “antifungal effect without LED illumination” value is “None of the Ag@mSiO2@HPIX hybrids, pure HPIX or Ag@mSiO2 at the tested concentrations shows antifungal effect”. The “PDI efficacy on biofilm under LED illumination” value in data set [4] (setting [9]) and in data set [5] (setting [9]) was “negligible PDI efficacy” each time. Further, the “antibiofilm effects without LED illumination” value in data set [4] (setting [8]) was “None of the Ag@mSiO2@HPIX hybrids, pure HPIX or Ag@mSiO2 at the tested concentrations shows antibiofilm effects”; in data set [5] (setting [8]), “None of the Ag@mSiO2@HPIX hybrids, pure HPIX or Ag@mSiO2 at the tested concentrations shows antibiofilm effects”.
As for `CCC1=C(C)c2cc3[nH]c(cc4[nH]c(cc5nc(cc1n2)C(C)=C5CC)c(C)c4CCC(=O)O)c(CCC(=O)O)c3C` [PIX, meso-porphyrin IX], the loading efficiency in data set [1] is 750 µg/mg.
Regarding `O=C1OC2(c3cc(I)c(O)c(I)c3Oc3c2cc(I)c(O)c3I)c2c(Cl)c(Cl)c(Cl)c(Cl)c21` [RB, rose bengal], the loading efficiency in data set [1] turned out to be 33.6 µg/mg.
Regarding `Cc1cc2nc3c(=O)[nH]c(=O)nc-3n(C[C@H](O)[C@H](O)[C@H](O)CO)c2cc1C` [Riboflavin, riboflavin], the “killing efficacy under visible light and near-infrared irradiations” value in data set [2] (Example 2), in data set [6] and in data set [7] was “needs visible light excitation to display rather moderate antibacterial effect” each time.
Consider `O=C(O)c1ccc(-c2c3nc(c(-c4ccc(C(=O)O)cc4)c4ccc([nH]4)c(-c4ccc(C(=O)O)cc4)c4nc(c(-c5ccc(C(=O)O)cc5)c5ccc2[nH]5)C=C4)C=C3)cc1` [TCPP, meso-tetra(4-carboxyphenyl) porphine], for which, in data set [1], the loading efficiency was found to be 140.7 µg/mg.
For the molecule “tris(2,2′-bipyridyl)dichlororuthenium(II) hexahydrate [RuBPy]”, the loading efficiency in data set [1] worked out at 28.3 µg/mg.
